Measured values taken from patent US8673914B2, “Use of phosphodiesterase inhibitors for treating multidrug resistance” (St. John's University, priority 2011, dated 2014).
Marks after values point to notes of the source that are not given here.

Key:
[1] = MTT cytotoxicity/reversal assay (Example 1); conditions: human
Procedure: (§1) The KB-C2 and KB-3-1 were kindly provided by Dr. Akiyama (Kagoshima University, Japan). […] Similarly, the HEK/MRP1 (ABCC1) and HEK/ABCB1 cells were generated by transfecting the HEK293 cells with either the MRP1 expression vector or the ABCB1 expression vector. All of the cell lines were grown in Dulbecco's modified Eagle's medium (DMEM) supplemented with 10% bovine serum, 100 units/ml penicillin, and […] streptomycin in a humidified incubator containing 5% CO2 at 37° C.
(§2) The MTT assay was used to assess cytotoxicity. The cultured cells were harvested with trypsin and resuspended in a final concentration of 4×10^3 cells/well for KB-3-1; 7.5×10^3 cells/well for KB-C2; and 8×10^3 for all of the other cell lines used in this study. Cells were seeded evenly in 96-well multiplates. […] After 68 h of incubation, 20 μl of the MTT solution (4 mg/ml) was added to each well, and the plate was further incubated for 4 h at 37° C., allowing viable cells to convert the yellow-colored MTT into dark-blue formazan crystals. Subsequently, the medium was discarded, and 100 μl of DMSO was added into each well to dissolve the formazan crystals, generating purple color. The absorbance was determined at 570 nm by an OPSYS Microplate Reader from DYNEX Technologies, Inc. (Chantilly, Va.). […] The degree of the reversal of multidrug resistance (MDR) was calculated by dividing the IC50 of an anticancer drug, e.g., an antineoplastic or chemotherapeutic drug (agent, compound), in a cell type in the absence of a reversal agent by the IC50 of the anticancer drug in the same cell type in the presence of the reversal agent. The IC50 values were calculated from survival curves using the Bliss method.

KB-3-1 = assay: MTT cytotoxicity/reversal assay (Example 2); assay type: cell-based, human; conditions: alone
Procedure: (§3) The ABCB1-overexpressing drug resistant cell line KB-V1 (generously provided by Dr. Gottesman, NCI, NIH) was established by a stepwise concentration increase of vinblastine in the culture medium of KB-3-1 cells and subsequently culturing these cells in medium with 1 μg/mL of vinblastine. An ABCC1-overexpressing MDR cell line, KB-CV60, was also derived from KB-3-1 cells and was maintained in medium with 1 μg/mL of cepharanthine and 60 ng/mL of vincristine. Both KB-C2 and KB-CV60 cell lines were kindly provided by Dr. Akiyama (Kagoshima University, Japan). HEK293/pcDNA3.1, ABCG2-482-R5, ABCG2-482-G2, and ABCG2-482-T7 cells were established by selection with 2 mg/mL G418 after transfecting HEK293 with either (1) empty pcDNA3.1 vector or (2) pcDNA3.1 vector containing full length ABCG2 coding either (2a) wild-type arginine (R) or mutant (2b) glycine (G) or (2c) threonine (T) at amino acid position 482, respectively. The wild-type ABCG2-overexpressing drug-resistant cell line MCF-7/Flv1000 was cultured in the medium with 1 μM of flavopiridol. […] Another G482 mutant ABCG2-overexpressing drug resistant cell line, S1-M1-80, was maintained in the medium with 80 μM of mitoxantrone. […] All the cell lines were grown as adherent monolayers in flasks with DMEM (Dulbecco's modified Eagle's medium) culture medium (Hyclone Co.) containing 10% bovine serum at 37° C. in a humidified atmosphere of 5% CO2.
(§4) Cells in 96-well plates were preincubated with or without the reversal agents for 1 h and then different concentrations of chemotherapeutic drugs were added into designated wells. After 68 h of incubation, MTT solution (4 mg/mL) was added to each well, and the plate was further incubated for 4 h, allowing viable cells to change the yellow-colored MTT into dark-blue formazan crystals. Subsequently the medium was discarded, and […] of DMSO was added into each well to dissolve the formazan crystals. The absorbance was determined at 570 nm by an OPSYS MR Microplate Reader from DYNEX Technologies, Inc.

KB-C2 = assay: MTT cytotoxicity/reversal assay (Example 2); assay type: cell-based, human; conditions: alone
Procedure: as §3, §4

KB-V1 = assay: MTT cytotoxicity/reversal assay (Example 2); assay type: cell-based, human; conditions: alone
Procedure: as §3, §4

[2] = MTT cytotoxicity assay (Example 4); assay type: cell-based; conditions: human; HEK/MRP7; alone; read-out: IC50 of paclitaxel
Procedure: The MRP7 cDNA was generously provided by Dr. Gary Kruh (University of Illinois, Chicago, Ill.) and inserted into the pcDNA3.1 expression vector. […] Individual colonies were selected in medium containing G418 (1 mg/ml) and cultured for further analysis.
MTT colorimetric assay was performed to analyze the drug sensitivity as previously described (Shi et al. (2007) Cancer Res. 67:11012-20). HEK293-pcDNA3.1 and HEK/MRP7 cells were seeded into 96-well plates in triplicate at 6000 cells/well.
After drug incubation of 68 h, 20 μl MTT solution (4 mg/ml) was added into each well. […] The Bliss method was used to calculate the IC50 values according to survival curves.

KB-C2 cells (ABCB1) = assay: [^3H]-paclitaxel efflux (Example 1); assay type: cell-based, human; conditions: 1 h
Procedure: The intracellular accumulation of [^3H]-paclitaxel was measured as follows. […] Intracellular paclitaxel accumulation was measured by incubating cells with 0.1 μM [^3H]-paclitaxel for 2 h in the presence or absence of the reversal agents at 37° C. The cells were washed three times with ice-cold PBS, then suspended in fresh medium with or without reversal agents at 37° C. Aliquots of the extracellular medium (40 μl) were collected at various time points (0, 60, 120 min), and finally the cells were collected and lysed in 10 mM lysis buffer (pH 7.4, containing 1% Triton X-100 and 0.2% SDS). Each sample was placed in scintillation fluid and the radioactivity was measured in a Packard TRI-CARB1 1900CA liquid scintillation analyzer from Packard Instrument Company, Inc. (Downers Grove, Ill.).

HEK/MRP1 (ABCC1) = assay: MTT cytotoxicity/reversal assay (Example 1); assay type: cell-based; conditions: +10 μM reversal agent
Procedure: as §1, §2

any cell lines tested = assay: MTT assay, vardenafil or tadalafil alone; assay type: cell-based; conditions: concentrations of up to 20 μM
Procedure: as §2

KB-3-1 cells [3] = assay: [^3H]-paclitaxel accumulation (Example 1); assay type: cell-based, human; conditions: 10 μM
Procedure: (§5) The cells were washed three times with ice-cold PBS, then suspended in fresh medium with or without reversal agents at 37° C. […] Each sample was placed in scintillation fluid and the radioactivity was measured in a Packard TRI-CARB1 1900CA liquid scintillation analyzer from Packard Instrument Company, Inc. (Downers Grove, Ill.).

KB-3-1 cells [4] = assay: [^3H]-paclitaxel efflux (Example 1); assay type: cell-based, human; conditions: absence or presence of vardenafil
Procedure: as §5

Row | Structure (SMILES) | IC50 at 68 h [1] [µM] | fold-resistance, paclitaxel (KB-3-1) | fold-resistance, paclitaxel (KB-C2) | fold-resistance, paclitaxel (KB-V1) | IC50 at 68 h [2] [µM] | accumulated paclitaxel effluxed (KB-C2 cells (ABCB1); absence of vardenafil) [%] | fold reversal, vincristine (HEK/MRP1 (ABCC1)) | growth inhibition by the PDE5 inhibitor alone (any cell lines tested) | effect on paclitaxel accumulation (KB-3-1 cells [3]) | accumulated paclitaxel retained inside cells (KB-C2 cells (ABCB1); 10 μM) [%] | change in effluxed paclitaxel (KB-3-1 cells [4])
1 | CC(=O)O[C@H]1C(=O)[C@@]2(C)[C@H]([C@H](OC(=O)c3ccccc3)[C@]3(O)C[C@H](OC(=O)[C@H](O)[C@@H](NC(=O)c4ccccc4)c4ccccc4)C(C)=C1C3(C)C)[C@]1(OC(C)=O)CO[C@@H]1C[C@@H]2O [Paclitaxel, paclitaxel] | 219 ± 13.2 | (1.0)^c | (788.5) | (1079.6) | 0.107 ± 0.0112 | 70 | – | – | – | – | –
2 | CN1CC(=O)N2[C@H](c3ccc4c(c3)OCO4)c3[nH]c4ccccc4c3C[C@@H]2C1=O [Tadalafil, tadalafil] | – | – | – | – | – | – | (1.03) | neither vardenafil nor tadalafil inhibited the growth of any cell lines tested | – | – | –
3 | CCCc1nc(C)c2c(=O)[nH]c(-c3cc(S(=O)(=O)N4CCN(CC)CC4)ccc3OCC)nn12 [Vardenafil, vardenafil] | – | – | – | – | – | – | (1.07) | neither vardenafil nor tadalafil inhibited the growth of any cell lines tested | without altering the levels | 75 | No significant change
